Results from patent publication US20080153792A1, “Drug Identification and Treatment Method” (priority 2006, published 2008).
Marks after values point to notes of the source that are not given here.

Tests used:
[1] = tested on: CD1 male mice, carrageenan-λ induced pleurisy; assay: carrageenan-λ induced lung (pleural cavity) inflammation in mice; assay type: in vivo, mouse; conditions: 1 mg and 0.1 mg by oral gavage
[2] = tested on: DBA/1Lac/J mice, collagen induced arthritis; assay: collagen induced arthritis (CIA), Foxp3+ cells and clinical score; assay type: in vivo, mouse
Procedure: Increase of CD4^+CD25^+ T regulatory cells or their activity in vivo. The compound 17α-ethynylandrost-5-ene-3β,7β,17β-triol was administered to mice essentially as described in a previously described collagen induced arthritis animal model. H. Offner et al., Clin. Immunol., 110:181-190, 2006.
DBA/1Lac/J mice were used for the study. The mice were obtained from Jackson Laboratories (Bar Harbor, Harbor, […].) and housed in accordance with applicable institutional guidelines. Bovine type II collagen (bCll) was used to induce collagen induced arthritis (CIA) by immunizing 8-week-old mice with 200 μg of bCII emulsified 1:1 with CFA containing 200 μg Mycobacterium tuberculosis (100 μL; Difco, Detroit, Mich.). The antigen was injected intradermally at the base of the tail. The animals were monitored for 4-7 weeks to observe the onset and progression of the disease post-immunization. The arthritic severity was evaluated with a grading system for each paw according to the following scale: 0=no redness or swelling; 1=slight swelling in ankle or redness in foot; 2=progressed swelling and inflammation and redness from ankle to mid foot; 3=swelling and inflammation of entire foot; 4=swelling and inflammation of entire foot including toes.
After immunization, the mice were treated with the drug at 40 mg/kg/day in vehicle by oral gavage beginning at the start of observable clinical disease (beginning at about 26-27 days after immunization). The vehicle that was used for the protocol was 30% cyclodextrin-sulfobutylether in water. The cyclodextrin-sulfobutylether was obtained commercially (Captisol™ available at cyclexinc.com). The drug formulation was 20 mg drug/mL in the vehicle.

DIO mice = assay: diet induced obesity (DIO) mouse, OGTT; assay type: in vivo; conditions: 20, 40 or 80 mg/kg twice a day oral gavage up to 28 days
Description: Diet induced obesity (DIO) mouse hyperglycemia treatment. The effect of a drug to enhance peripheral sensitivity to insulin can be studied in a mouse model in which a state of insulin resistance is attained by feeding the animals a fat-enriched diet (60% of total caloric intake) for at least 6 weeks. This model has been described, e.g., J. N. Thupari et al., Proc. Natl. Acad. Sci. USA, 99(14):9498-9502, 2002, H. Xu et al., J. Clin. Invest., 112:1821-1830, 2003, H. Takahashi et al., J. Biol. Chem., 278(47):46654-46660, 2003.
For these studies, animals of approximately 4 weeks of age were divided into groups of 10 animals each and then treated with a vehicle control (no drug) or 17α-ethynylandrost-5-ene-3β,7β,17β-triol by oral gavage. The 17α-ethynylandrost-5-ene-3β,7β,17β-triol was administered at 20 mg/kg, 40 mg/kg or 80 mg/kg twice a day for up to 28 days. At day 14 and day 28 during the dosing period an OGTT was performed.

androgen receptor = androgen receptor (Homo sapiens, UniProt P10275); assay: interaction with androgen receptor
[3] = metabolic stability in liver microsomes: rat; conditions: 30 min
Procedure: Metabolic stability. The metabolic stability of selected compounds was examined in vitro using microsomes obtained from liver tissue according to the following protocol.
The protocol was performed as follows. (1) Prepared 0.5 mM compound in acetonitrile/water 35:65. […] (2) Set up samples as follows. […] Tubes for each compound was follows: 1-0′ 2-0′ 3-0′ 4-0′* 5-0′* 6-5 μM 7-1 μM 8-30′ 9-30′ 10-30′ where * designated denatured microsome negative control reaction tubes. For additional compounds numbering was started at 11, 21, 31, etc. (3) Added 315 μL PBS (pH 7.3-7.5) to each tube. Added 10 μL of the appropriate test article solution to each tube. (4) The internal standard/acetonitrile solution. (5) The NADPH regenerating system (NRS) was 125 μL per tube. To PBS added 1.7 mg/ml NADP, 7.8 mg/ml glucose-6-phosphate, 6 units/mL glucose-6-phosphate dehydrogenase. Fresh NRS for each experiment was kept on ice until use. (6) Each reaction used 125 μL of NRS in each tube. (7) Removed liver microsome preparation from −80° C. freezer and thawed in a room temperature water bath. The microsomal preparation was at a concentration of 20 mg/ml. […] (13) The methyl-t-butyl ether was transferred from each tube to a fresh tube and the solvent was evaporated ether under nitrogen and the precipitate was then resuspended in 100 μL acetonitrile/water 35:65 and analyzed by LCMS.

[4] = tested on: estrogen receptor-s or estrogen receptor-s; assay: interaction with estrogen receptors
MG-63 cells = assay: reversal of glucocorticoid effects in MG-63 osteosarcoma cells; assay type: cell-based, human; conditions: 1 nM compound; 7 hours; 30 nM dexamethasone
[5] = tested on: BALB/C mice, TNP-OVA sensitized; assay: reporter antigen popliteal lymph node (PLN) assay; assay type: in vivo, mouse; conditions: for average number of lymphocytes in PLNs: day 5
Description: Analysis of immune suppression. Glucocorticoid steroids such as dexamethasone or hydrocortisone are typically immune suppressive and have significant toxicities associated with their use. Immune suppression was examined in a reporter antigen popliteal lymph node assay in mice essentially as previously described (C. Goebel et al., Inflamm. Res., 45(Suppl. 2):S85-S90, 1996; R. Pieters et al., Environmental Health Perspectives 107(Suppl. 5):673-677,1999). […] In this protocol, the vehicle was 0.1% carboxymethylcellulose, 0.9% saline, 2% tween 80 and 0.05% phenol, which contained 17α-ethynylandrost-5-ene-3β,7β,17β-triol in suspension in drug treated animals. Assessment of activity included (1) measuring suppression of numbers of total lymphocytes, antigen specific IgM, IgG1 and IgG2a antibody secreting cells (ASC) (ELISPOT assay) in popliteal lymph node cells; (2) analysis of cell surface marker (CD4, CD8, CD19, F480, CD80, CD86) expression by flow cytometry of living cells in suspension; and (3) IL-4, TNFα and IFNγ production by lymphocytes in vitro (ELISA).
Groups (n=5 per group) of specific pathogen free BALB/C mice were used. The Positive control group was treated with vehicle (oral gavage) and 5 μg/day dexamethasone by subcutaneous injection to induce immune suppression. Vehicle control animals (negative control) were treated with vehicle alone (oral gavage). One group of animals was treated with 17α-ethynylandrost-5-ene-3β,7β,17β-triol at 0.1 mg/day by oral gavage. Another group was treated with 1 mg/day of 17α-ethynylandrost-5-ene-3β,7β,17β-triol was administered to the animals oral gavage. The results were analyzed by two-tailed Student's t-test with equal variance. The animals were injected in the right hind footpad with 50 μL of freshly prepared sensitizing dose of TNP-OVA. Dexamethasone (decadron phosphate injection; dexamethasone sodium phosphate) was administered by subcutaneous injection into the nape of the neck daily, immediately following sensitization with TNP-OVA. 17α-Ethynylandrost-5-ene-3β,7β,17β-triol was given immediately afterwards by gavage. Five days after injection of TNP-OVA, blood was drawn by orbital puncture, and the mice were euthanized by cervical dislocation and popliteal lymph nodes were removed and separated from adherent fatty tissue. Single cell suspensions were prepared, resuspended in 1 mL PBS-BSA (1%) and counted. Cell numbers, IL-4, IL-5 and IFNγ were measured.

[6] = 40 mg/kg/day oral gavage from onset of clinical disease, n = 3

androgen receptor, sequence (P10275 whole entry, species assumed): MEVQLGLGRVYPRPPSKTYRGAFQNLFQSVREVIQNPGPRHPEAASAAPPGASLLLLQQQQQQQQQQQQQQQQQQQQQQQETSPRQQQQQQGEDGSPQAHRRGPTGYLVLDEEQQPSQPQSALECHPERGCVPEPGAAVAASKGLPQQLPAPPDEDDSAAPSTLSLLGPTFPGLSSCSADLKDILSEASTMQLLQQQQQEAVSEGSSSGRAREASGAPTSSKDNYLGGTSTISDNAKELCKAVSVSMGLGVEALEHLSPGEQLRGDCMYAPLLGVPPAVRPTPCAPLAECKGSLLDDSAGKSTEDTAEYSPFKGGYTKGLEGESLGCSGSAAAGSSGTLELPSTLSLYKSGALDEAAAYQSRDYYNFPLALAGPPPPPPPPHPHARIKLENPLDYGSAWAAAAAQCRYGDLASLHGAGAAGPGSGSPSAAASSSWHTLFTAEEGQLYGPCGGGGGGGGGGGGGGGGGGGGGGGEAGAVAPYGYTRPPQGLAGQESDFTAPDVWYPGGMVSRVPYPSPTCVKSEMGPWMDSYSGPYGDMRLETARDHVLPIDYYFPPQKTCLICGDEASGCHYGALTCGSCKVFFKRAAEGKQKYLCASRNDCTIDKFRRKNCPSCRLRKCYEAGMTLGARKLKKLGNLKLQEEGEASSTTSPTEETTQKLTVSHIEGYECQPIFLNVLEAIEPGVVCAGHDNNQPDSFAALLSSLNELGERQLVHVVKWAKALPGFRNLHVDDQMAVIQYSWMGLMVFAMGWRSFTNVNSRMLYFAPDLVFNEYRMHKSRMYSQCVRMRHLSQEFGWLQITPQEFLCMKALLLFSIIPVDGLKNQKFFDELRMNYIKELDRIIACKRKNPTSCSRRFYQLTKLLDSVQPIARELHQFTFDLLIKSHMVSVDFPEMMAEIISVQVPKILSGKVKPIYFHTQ

C#C[C@]1(O)CC[C@H]2[C@@H]3[C@@H](O)C=C4C[C@@H](O)CC[C@]4(C)[C@H]3CC[C@@]21C [17α-ethynylandrost-5-ene-3β,7β,17β-triol]
anti-inflammation activity versus vehicle controls [1]: statistically significant anti-inflammation activity | CD4^+Foxp3^+ cells in whole splenocytes [2, 6]: 1.34% ± 0.05 | Total Foxp3^+ cells in whole splenocytes [2, 6]: 2.39% ± 0.16 | Foxp3+ CD4^+ cells by cell sorter analysis ([2]; 40 mg/kg/day, control animals 1.0%): 1.4% | maximum mean clinical score ([2]; at day 34, vehicle about 6.8-8 between days 34-49): about 5 | mean clinical score ([2]; by day 49): about 3 | glucose intolerance (OGTT glycemic excursion) compared to vehicle (DIO mice): notably reduced glucose intolerance | interaction with androgen receptor (androgen receptor): do not interact | parent remaining, rat microsome instead of mouse preparation [3]: 86%* (30 min) | interaction with estrogen receptor-s or estrogen receptor-s [4]: do not interact | reversal of the decrease in osteoprotegerin synthesis (MG-63 cells): completely reversed | average number of lymphocytes in PLNs ([5]; 0.1 mg/day by oral gavage): 11.1×10^6 lymphocytes per lymph node | average number of lymphocytes in PLNs ([5]; 1 mg/day by oral gavage): 8.2×10^6 lymphocytes per lymph node | IFNγ, IL-4 and IL-5 levels compared to the vehicle control group ([5]; compound 1.0 mg/day and 0.1 mg/day oral, dexamethasone 5 μg/day s.c.): increased
